Values quoted from earlier work as cited in patent US20100022590A1, “Novel compounds” (BIOVITRUM AB (publ.), priority 2008, published 2010).

Key:
[1] = system: intraocular pressure (IOP); details: orally administered, patients with ocular hypertension
[2] = system: intraocular pressure (IOP); details: oral administration, healthy volunteers

SMILES: CC1(C)[C@@H](OC(=O)CCC(=O)O)CC[C@]2(C)[C@H]3C(=O)C=C4[C@@H]5C[C@@](C)(C(=O)O)CC[C@]5(C)CC[C@@]4(C)[C@]3(C)CC[C@@H]12 [carbenoxolone]
- IOP reduction [1]: 10%
- reduction of intraocular pressure (IOP) [2]: 20%
